# Test results reported in article PMC5913751 (Peptides, 2018).
# Like-named read-outs stand apart in the source and are kept apart here. Where no end group is shown, it is not given here.
# Experiments:
# E.coli = details: cited from earlier work
# R. solani Khun = details: against R. solani Khun; ref [34]; cited from earlier work
# S.aureus = details: cited from earlier work
# [1] = system: gram-negative bacteria, mostly E.coli and P. aeruginosa; details: range stated jointly; ref Table 5.0 ([28], [30]–[32]); cited from earlier work
# P.aeruginosa = details: cited from earlier work
# sheep erythrocytes = experiment: Hemolysis assay; assay type: cell-based; details: sheep erythrocytes in PBS, 37°C 18–24 hours, absorbance 567 nm
# Bacilius subtilis = details: cited from earlier work
# Fungus = details: cited from earlier work
compound,measurement,setting,value
Trx-stomoxynZH1,MIC values E.coli,E.coli; ref [34],15 to 30 µg/mL
same,MIC values Fungus,R. solani Khun,> 98 against R. solani Khun μg/ml
same,MIC values S.aureus,S.aureus; ref [34],27 to 54 µg/mL
"Cecropin A (KWKLFKKIEKVGQNIRDGIIKAGPAVAVVGQATQIAK; ends and bridges not checked; UniProt P01507 27-63, looked up)",MIC values E.coli,E.coli; ref [28],2.5 µg/mL
same,MIC range against different strains of gram-negative bacteria,[1],2 to 20 µg/mL
same,MIC values P.aeruginosa,P.aeruginosa; ref [28],2.5 µg/mL
"Cecropin B (KWKVFKKIEKMGRNIRNGIVKAGPAIAVLGEAKAL; ends and bridges not checked; UniProt P01508 27-61, looked up)",MIC values E.coli,E.coli; ref [28],2.5 µg/mL
same,MIC values E.coli,E.coli; ref [30],2 µg/mL
same,MIC values E.coli,E.coli; ref [31],16 µg/mL
same,MIC range against different strains of gram-negative bacteria,[1],2 to 20 µg/mL
same,MIC values P.aeruginosa,P.aeruginosa; ref [28],2.5 µg/mL
same,MIC values P.aeruginosa,P.aeruginosa; ref [30],>100 µg/mL
same,MIC values S.aureus,S.aureus; ref [31],>128 µg/mL
CC[C@H](C)[C@H](NC(=O)CN)C(=O)NCC(=O)N[C@@H](C)C(=O)N[C@H](C(=O)N[C@@H](CC(C)C)C(=O)N[C@@H](CCCCN)C(=O)N[C@H](C(=O)N[C@@H](CC(C)C)C(=O)N[C@H](C(=O)N[C@H](C(=O)NCC(=O)N[C@@H](CC(C)C)C(=O)N1CCC[C@H]1C(=O)N[C@@H](C)C(=O)N[C@@H](CC(C)C)C(=O)N[C@H](C(=O)N[C@@H](CO)C(=O)N[C@@H](Cc1c[nH]c2ccccc12)C(=O)N[C@H](C(=O)N[C@@H](CCCCN)C(=O)N[C@@H](CCCNC(=N)N)C(=O)N[C@@H](CCCCN)C(=O)N[C@@H](CCCNC(=N)N)C(=O)N[C@@H](CCC(N)=O)C(=O)N[C@@H](CCC(N)=O)C(N)=O)[C@@H](C)CC)[C@@H](C)CC)[C@@H](C)O)[C@@H](C)O)C(C)C)C(C)C [Melittin],concentration at which RBCs are lysed,sheep erythrocytes,≥ 12500 ng/mL
Sapecin,MIC values E.coli,E.coli; ref [36],>78.0 µg/mL
same,MIC values Bacilius subtilis,Bacilius subtilis; ref [36],20 to 39 µg/mL
same,MIC values S.aureus,S.aureus; ref [36],5.0 µg/mL
Oh-defensin,MIC values E.coli,E.coli; ref [39],1.3 µg/mL
same,MIC values Fungus,Fungus; ref [39],1.3 µg/mL
same,MIC values S.aureus,S.aureus; ref [39],1.25 µg/mL
Bactrocerin-1,MIC values E.coli,E.coli; ref [37],>232.5 µg/mL
same,MIC values Bacilius subtilis,Bacilius subtilis; ref [37],13.0 µg/mL
same,MIC values Fungus,Fungus; ref [37],26.0 to 104.7 µg/mL
same,MIC values S.aureus,S.aureus; ref [37],6.5 µg/mL
Galleria defensin,MIC values Fungus,Fungus; ref [38],14.7 to 29.5 µg/mL
Cecropin P1,MIC values E.coli,E.coli; ref [32],0.12 to 4 µg/mL
same,MIC range against different strains of gram-negative bacteria,[1],2 to 20 µg/mL
same,MIC values P.aeruginosa,P.aeruginosa; ref [32],4 to 64 µg/mL
